Bounds are passed on as bounds.

This test addresses T1, Proteinase-activated receptor 1 (Homo sapiens, UniProt P25116).
T1 sequence (P25116 whole entry): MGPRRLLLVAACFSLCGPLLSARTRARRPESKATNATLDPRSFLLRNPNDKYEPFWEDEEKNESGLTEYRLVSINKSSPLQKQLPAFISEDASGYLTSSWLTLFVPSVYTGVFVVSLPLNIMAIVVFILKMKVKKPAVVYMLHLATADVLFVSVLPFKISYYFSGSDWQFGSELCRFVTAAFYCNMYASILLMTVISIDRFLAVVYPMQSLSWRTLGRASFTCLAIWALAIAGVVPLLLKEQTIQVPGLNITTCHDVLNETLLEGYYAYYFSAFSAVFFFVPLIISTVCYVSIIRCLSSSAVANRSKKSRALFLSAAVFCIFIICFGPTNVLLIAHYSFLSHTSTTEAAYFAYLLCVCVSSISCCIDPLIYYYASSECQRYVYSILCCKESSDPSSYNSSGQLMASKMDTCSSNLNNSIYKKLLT
In general, IC50 refers to the point on the concentration scale where inhibition reaches its midpoint. Lower therefore signals higher potency. Turning to `CC(=O)N(C(=O)c1ccc(-c2ccccc2)cc1)[C@@H](Cc1ccc(F)cc1)C(=O)N[C@@H](Cc1ccc(NC(=N)N)cc1)C(=O)N[C@@H](CC(C)C)C(=O)N[C@@H](CCCN=C(N)N)C(N)=O`, the half-inhibitory concentration (IC50) is 46 nM. `COc1ccc(/C=C/C(=O)N(C(C)=O)[C@@H](Cc2ccc(F)cc2)C(=O)N[C@@H](Cc2ccc(NC(=N)N)cc2)C(=O)N[C@@H](CC(C)C)C(=O)N[C@@H](CCCN=C(N)N)C(N)=O)cc1` showed a 50% inhibitory concentration (IC50) of 40 nM. For the compound `CC(=O)N(C(=O)/C=C/c1ccccc1)[C@@H](Cc1ccc(F)cc1)C(=O)N[C@@H](Cc1ccc(NC(=N)N)cc1)C(=O)N[C@@H](CC(C)C)C(=O)N[C@@H](CCCN=C(N)N)C(=O)N[C@@H](CCCN)C(=O)CCC(N)=O`, 21.9 nM corresponded to half-maximal inhibition (IC50). Under `CC(=O)N(C(=O)/C=C/c1ccccc1)[C@@H](Cc1ccc(F)cc1)C(=O)N[C@@H](Cc1ccc(NC(=N)N)cc1)C(=O)N[C@@H](CC(C)C)C(=O)N[C@@H](CCCN)C(=O)CC(N)=O` stands 44 nM. Take `CC(=O)N(C(=O)/C=C/c1ccccc1)[C@@H](Cc1ccc(F)cc1)C(=O)N[C@@H](Cc1ccc(NC(=N)N)cc1)C(=O)N[C@@H](CC(C)C)C(=O)N[C@@H](CCCN)C(N)=O`: half-maximal inhibition (IC50) was put at 17 nM. `CC(=O)N(C(=O)/C=C/c1ccccc1)[C@@H](Cc1ccc(F)cc1)C(=O)N[C@@H](Cc1ccc(NC(=N)N)cc1)C(=O)N[C@@H](CCCN)C(N)=O` came in with a half-inhibitory concentration (IC50) of 870 nM. The result for `CC(=O)N(c1cccs1)[C@@H](Cc1ccc(F)cc1)C(=O)N[C@@H](Cc1ccc(NC(=N)N)cc1)C(=O)N[C@@H](CC(C)C)C(=O)N[C@@H](CCCN=C(N)N)C(N)=O` reads 260 nM.

For the compound `CC(=O)N(c1c[nH]c2ccccc12)[C@@H](Cc1ccc(F)cc1)C(=O)N[C@@H](Cc1ccc(NC(=N)N)cc1)C(=O)N[C@@H](CC(C)C)C(=O)N[C@@H](CCCN=C(N)N)C(N)=O`, the IC50 stood at 500 nM. `CC(=O)N(C(=O)/C=C/c1ccccc1)[C@@H](Cc1ccc(F)cc1)C(=O)N[C@@H](Cc1ccc(N)cc1)C(=O)N[C@@H](CC(C)C)C(=O)N[C@@H](CCCN=C(N)N)C(N)=O`: 370 nM corresponded to half-maximal inhibition (IC50). The result for `CC(=O)N(C1CCCC1)[C@@H](Cc1ccc(F)cc1)C(=O)N[C@@H](Cc1ccc(NC(=N)N)cc1)C(=O)N[C@@H](CC(C)C)C(=O)N[C@@H](CCCN=C(N)N)C(N)=O` reads 370 nM; that for `CC(=O)N(C(=O)/C=C/c1ccccc1)[C@@H](Cc1ccc(F)cc1)C(=O)N[C@@H](Cc1ccc(NC(=N)N)cc1)C(=O)N[C@@H](CC(C)C)C(N)=O`, 110 nM.

For the compound `CC(=O)N(C(=O)/C=C/c1ccccc1)[C@@H](Cc1ccc(F)cc1)C(=O)N[C@@H](Cc1ccc(NC(=N)N)cc1)C(N)=O`, the half-inhibitory concentration (IC50) came to 780 nM. `CC(=O)N(C(=O)/C=C/c1ccc(Cl)cc1)[C@@H](Cc1ccc(F)cc1)C(=O)N[C@@H](Cc1ccc(NC(=N)N)cc1)C(=O)N[C@@H](CC(C)C)C(=O)N[C@@H](CCCN=C(N)N)C(N)=O` came in with an IC50 of 99 nM.

`COc1ccc(C[C@H](NC(=O)[C@H](Cc2ccc(F)cc2)N(C(C)=O)C(=O)/C=C/c2ccccc2)C(=O)N[C@@H](CC(C)C)C(=O)N[C@@H](CCCN=C(N)N)C(N)=O)cc1` gave an IC50 of 1180 nM. For the compound `CC(=O)N(C(=O)/C=C/c1ccccc1)[C@@H](Cc1ccc(F)cc1)C(=O)N[C@@H](CCCN=C(N(C)C)N(C)C)C(=O)N[C@@H](CC(C)C)C(=O)N[C@@H](CCCN=C(N)N)C(N)=O`, the IC50 turned out to be 320 nM. `CC(=O)N(C(=O)/C=C/c1ccccc1)[C@@H](Cc1ccc(F)cc1)C(=O)N[C@@H](Cc1ccc(NC(=N)N)cc1)C(=O)N[C@@H](CC(C)C)C(=O)N[C@@H](CCCN=C(N)N)C(N)=O` yielded an IC50 of 7.8 nM. The result for `CC(=O)N(C(=O)/C=C/c1ccccc1)[C@@H](Cc1ccc(F)cc1)C(=O)N[C@@H](Cc1ccc(NC(=N)N)cc1)C(=O)N[C@@H](CC(C)C)C(=O)N[C@@H](CCCN=C(N)N)C(=O)N[C@@H](CCCN)C(=O)CC(N)=O` reads 16.6 nM; that for `CC(=O)N(C(=O)/C=C/c1ccccc1)[C@@H](Cc1ccc(F)cc1)C(=O)N[C@@H](CCN=C(N(C)C)N(C)C)C(=O)N[C@@H](CC(C)C)C(=O)N[C@@H](CCCN=C(N)N)C(N)=O`, 340 nM; that for `CC(=O)N(C(=O)/C=C/c1ccccc1)[C@@H](Cc1ccc(F)cc1)C(=O)N[C@@H](CCCCN=C(N(C)C)N(C)C)C(=O)N[C@@H](CC(C)C)C(=O)N[C@@H](CCCN=C(N)N)C(N)=O`, 130 nM.

The compound `CC(=O)N(CC(=O)N[C@@H](Cc1ccc(NC(=N)N)cc1)C(=O)N[C@@H](CC(C)C)C(=O)N[C@@H](CCCN=C(N)N)C(N)=O)C(=O)/C=C/c1ccccc1` gave an IC50 above 30000 nM.

In turn, `CC(=O)N(C(=O)/C=C/c1ccccc1)[C@@H](Cc1ccc(F)cc1)C(=O)N[C@@H](CCCCN)C(=O)N[C@@H](CC(C)C)C(=O)N[C@@H](CCCN=C(N)N)C(N)=O` yielded a half-inhibitory concentration (IC50) of 39 nM.

In turn, `CC(=O)N(c1cccnc1)[C@@H](Cc1ccc(F)cc1)C(=O)N[C@@H](Cc1ccc(NC(=N)N)cc1)C(=O)N[C@@H](CC(C)C)C(=O)N[C@@H](CCCN=C(N)N)C(N)=O` displayed an IC50 of 950 nM. In turn, `CC(=O)N(C(=O)Cc1ccc2ccccc2c1)[C@@H](Cc1ccc(F)cc1)C(=O)N[C@@H](Cc1ccc(NC(=N)N)cc1)C(=O)N[C@@H](CC(C)C)C(=O)N[C@@H](CCCN=C(N)N)C(N)=O` showed an IC50 of 295 nM. As for `CCCC(=O)c1ccc(N(C(C)=O)[C@@H](Cc2ccc(F)cc2)C(=O)N[C@@H](Cc2ccc(NC(=N)N)cc2)C(=O)N[C@@H](CC(C)C)C(=O)N[C@@H](CCCN=C(N)N)C(N)=O)cc1`, half-maximal inhibition (IC50) required 1260 nM. `CC(=O)N(C(=O)/C=C/c1ccc(N)cc1)[C@@H](Cc1ccc(F)cc1)C(=O)N[C@@H](Cc1ccc(NC(=N)N)cc1)C(=O)N[C@@H](CC(C)C)C(=O)N[C@@H](CCCN=C(N)N)C(N)=O`: half-maximal inhibition (IC50) required 61 nM.

For `CC(=O)N(C(=O)c1cc2ccccc2oc1=O)[C@@H](Cc1ccc(F)cc1)C(=O)N[C@@H](Cc1ccc(NC(=N)N)cc1)C(=O)N[C@@H](CC(C)C)C(=O)N[C@@H](CCCN=C(N)N)C(N)=O`, the 50% inhibitory concentration (IC50) was found to be 4330 nM.

In turn, `C=CC(=O)c1ccsc1N(C(C)=O)[C@@H](Cc1ccc(F)cc1)C(=O)N[C@@H](Cc1ccc(NC(=N)N)cc1)C(=O)N[C@@H](CC(C)C)C(=O)N[C@@H](CCCN=C(N)N)C(N)=O` showed a 50% inhibitory concentration (IC50) of 23 nM. With `CC(=O)N(C(=O)c1cccc(C2CCCCC2)c1)[C@@H](Cc1ccc(F)cc1)C(=O)N[C@@H](Cc1ccc(NC(=N)N)cc1)C(=O)N[C@@H](CC(C)C)C(=O)N[C@@H](CCCN=C(N)N)C(N)=O`, the midpoint of inhibition, the IC50, lay at 2320 nM. On to `CC(=O)N(c1ccsc1)[C@@H](Cc1ccc(F)cc1)C(=O)N[C@@H](Cc1ccc(NC(=N)N)cc1)C(=O)N[C@@H](CC(C)C)C(=O)N[C@@H](CCCN=C(N)N)C(N)=O`, for which half-maximal inhibition (IC50) was put at 310 nM. The result for `CC(=O)N(c1ccc(F)cc1)[C@@H](Cc1ccc(F)cc1)C(=O)N[C@@H](Cc1ccc(NC(=N)N)cc1)C(=O)N[C@@H](CC(C)C)C(=O)N[C@@H](CCCN=C(N)N)C(N)=O` reads 350 nM; that for `CC(=O)N(Oc1c[nH]c2ccccc12)[C@@H](Cc1ccc(F)cc1)C(=O)N[C@@H](Cc1ccc(NC(=N)N)cc1)C(=O)N[C@@H](CC(C)C)C(=O)N[C@@H](CCCN=C(N)N)C(N)=O`, 130 nM; that for `CC(=O)N(C(=O)COc1ccccc1)[C@@H](Cc1ccc(F)cc1)C(=O)N[C@@H](Cc1ccc(NC(=N)N)cc1)C(=O)N[C@@H](CC(C)C)C(=O)N[C@@H](CCCN=C(N)N)C(N)=O`, 21 nM. `CC(C)C[C@H](NC(=O)[C@@H](N)CCCN=C(N)N)C(=O)N[C@@H](CCCN)C(=O)N[C@@H](Cc1ccc(F)cc1)C(=O)NC(=O)/C=C/c1ccccc1` showed an IC50 of 170 nM.

The compound `CC(=O)N(C(=O)/C=C/c1ccccc1)[C@@H](Cc1ccc(F)cc1)C(=O)NC(=O)NCCC[C@H](NC(=O)[C@H](CC(C)C)NC(=O)[C@@H](N)CCCN=C(N)N)C(=O)O` displayed an IC50 of 1040 nM. Under `CC(=O)N(C(=O)/C=C/c1ccccc1)[C@@H](Cc1ccc(F)cc1)C(=O)N[C@@H](Cc1cccnc1)C(=O)N[C@@H](CC(C)C)C(=O)N[C@@H](CCCN=C(N)N)C(N)=O` stands 340 nM; under `CC(=O)N(C(=O)/C=C/c1ccccc1)[C@@H](Cc1ccc(F)cc1)C(=O)N[C@@H](Cc1ccc([N+](=O)[O-])cc1)C(=O)N[C@@H](CC(C)C)C(=O)N[C@@H](CCCN=C(N)N)C(N)=O`, 7550 nM; under `CC(=O)N(C(=O)/C=C/c1ccccc1)[C@@H](Cc1ccc(F)cc1)C(=O)N[C@@H](Cc1ccccc1)C(=O)N[C@@H](CC(C)C)C(=O)N[C@@H](CCCN=C(N)N)C(N)=O`, 1120 nM. Regarding `CC(=O)N(C(=O)/C=C/c1ccccc1)[C@@H](Cc1ccc(F)cc1)C(=O)N[C@@H](Cc1ccc(Cl)cc1)C(=O)N[C@@H](CC(C)C)C(=O)N[C@@H](CCCN=C(N)N)C(N)=O`, inhibition was half-maximal at 4710 nM (IC50).

Regarding `CC(=O)N(c1ccccc1F)[C@@H](Cc1ccc(F)cc1)C(=O)N[C@@H](Cc1ccc(NC(=N)N)cc1)C(=O)N[C@@H](CC(C)C)C(=O)N[C@@H](CCCN=C(N)N)C(N)=O`, the IC50 stood at 560 nM.

In turn, `CC(=O)N(C(=O)/C=C/c1ccc(O)cc1)[C@@H](Cc1ccc(F)cc1)C(=O)N[C@@H](Cc1ccc(NC(=N)N)cc1)C(=O)N[C@@H](CC(C)C)C(=O)N[C@@H](CCCN=C(N)N)C(N)=O` registered a half-inhibitory concentration (IC50) of 62 nM. Under `CC(=O)N(Oc1cccs1)[C@@H](Cc1ccc(F)cc1)C(=O)N[C@@H](Cc1ccc(NC(=N)N)cc1)C(=O)N[C@@H](CC(C)C)C(=O)N[C@@H](CCCN=C(N)N)C(N)=O` stands 220 nM. `CCC(=O)c1cccc(N(C(C)=O)[C@@H](Cc2ccc(F)cc2)C(=O)N[C@@H](Cc2ccc(NC(=N)N)cc2)C(=O)N[C@@H](CC(C)C)C(=O)N[C@@H](CCCN=C(N)N)C(N)=O)c1` came in with an IC50 of 42 nM. As for `CC(=O)N(C(=O)CSc1ccccc1)[C@@H](Cc1ccc(F)cc1)C(=O)N[C@@H](Cc1ccc(NC(=N)N)cc1)C(=O)N[C@@H](CC(C)C)C(=O)N[C@@H](CCCN=C(N)N)C(N)=O`, half-maximal inhibition (IC50) was put at 19 nM.

The values are drawn from ChEMBL document CHEMBL1129588, “Development of potent thrombin receptor antagonist peptides” (J Med Chem, 1996).
